Test results as given in patent US11912701B2, “Protein kinase inhibitors for promoting liver regeneration or reducing or preventing hepatocyte death” (HEPAREGENIX GMBH, priority 2018, dated 2024).

Tests used:
JNK1 [1] = target: T1, JNK1 (Homo sapiens, UniProt P45983); assay: KINOMEscan competition binding assay, JNK1; design: M1/Q384; host or cells: HEK-293; details: ratio PoC (off-target)/PoC (MKK4)
Method in brief: (§1)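 DNA-tagged kinases expressed in HEK-293 cells compete between immobilized ligand on blocked beads and test compound at 100 nM; kinase retained on beads quantified by qPCR of the tag.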
Target sequence in this assay (P45983 1-384 isoform P45983-2): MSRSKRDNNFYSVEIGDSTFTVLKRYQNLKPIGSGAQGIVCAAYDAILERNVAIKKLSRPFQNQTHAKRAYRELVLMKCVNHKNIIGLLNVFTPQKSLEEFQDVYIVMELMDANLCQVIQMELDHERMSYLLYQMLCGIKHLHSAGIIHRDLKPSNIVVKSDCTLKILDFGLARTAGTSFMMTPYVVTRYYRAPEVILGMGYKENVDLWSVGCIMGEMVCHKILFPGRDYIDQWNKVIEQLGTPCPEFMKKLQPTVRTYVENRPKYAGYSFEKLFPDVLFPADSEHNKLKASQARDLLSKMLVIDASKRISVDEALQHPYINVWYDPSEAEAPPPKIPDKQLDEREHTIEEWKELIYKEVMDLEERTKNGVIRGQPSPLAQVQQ

BRaf [2] = target: T2, BRaf (Homo sapiens, UniProt P15056); assay: KINOMEscan competition binding assay, BRaf; details: ratio PoC (off-target)/PoC (MKK4)
T2 construct: purchased ProQinase GmbH, Freiburg, Germany (33PanQinase Assay Service)
T2 sequence (P15056 whole entry, species assumed): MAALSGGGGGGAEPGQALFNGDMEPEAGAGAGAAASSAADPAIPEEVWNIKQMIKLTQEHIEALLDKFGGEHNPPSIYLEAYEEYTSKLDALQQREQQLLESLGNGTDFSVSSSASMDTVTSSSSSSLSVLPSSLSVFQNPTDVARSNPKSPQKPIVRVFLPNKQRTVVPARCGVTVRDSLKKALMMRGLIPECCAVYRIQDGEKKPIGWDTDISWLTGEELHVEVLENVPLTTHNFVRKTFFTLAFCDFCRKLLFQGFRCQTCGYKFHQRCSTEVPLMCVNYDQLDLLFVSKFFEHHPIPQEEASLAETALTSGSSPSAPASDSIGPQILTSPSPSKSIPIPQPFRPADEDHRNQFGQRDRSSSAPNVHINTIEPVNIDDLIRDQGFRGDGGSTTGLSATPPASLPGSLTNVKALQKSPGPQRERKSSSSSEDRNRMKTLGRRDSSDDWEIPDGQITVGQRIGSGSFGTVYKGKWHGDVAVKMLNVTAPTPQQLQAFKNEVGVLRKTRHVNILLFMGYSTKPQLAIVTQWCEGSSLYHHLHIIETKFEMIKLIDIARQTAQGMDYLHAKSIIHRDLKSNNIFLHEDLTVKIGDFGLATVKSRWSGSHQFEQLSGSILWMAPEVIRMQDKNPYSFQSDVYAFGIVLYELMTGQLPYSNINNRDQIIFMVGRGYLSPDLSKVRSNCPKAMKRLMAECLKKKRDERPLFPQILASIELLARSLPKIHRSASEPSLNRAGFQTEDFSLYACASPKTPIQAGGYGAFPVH
Method in brief: as §1

JNK1 [3] = target: T1, JNK1; assay: 33PanQinase enzyme assay, JNK1; type: biochemical; design: purchased ProQinase GmbH, Freiburg, Germany (33PanQinase Assay Service); details: ratio IC50(JNK1)/IC50(MKK4)
Method in brief: (§2)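 Off-target selectivity is the ratio IC50(off-target)/IC50(MKK4), with IC50 values from least-squares fitting and single-point data as % residual activity. Reactions of enzyme/substrate mix, ATP and compound ran 60 min at 30° C before H3PO4 stop; ^33P incorporation read on a scintillation counter.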
Target sequence in this assay (P45983 whole entry): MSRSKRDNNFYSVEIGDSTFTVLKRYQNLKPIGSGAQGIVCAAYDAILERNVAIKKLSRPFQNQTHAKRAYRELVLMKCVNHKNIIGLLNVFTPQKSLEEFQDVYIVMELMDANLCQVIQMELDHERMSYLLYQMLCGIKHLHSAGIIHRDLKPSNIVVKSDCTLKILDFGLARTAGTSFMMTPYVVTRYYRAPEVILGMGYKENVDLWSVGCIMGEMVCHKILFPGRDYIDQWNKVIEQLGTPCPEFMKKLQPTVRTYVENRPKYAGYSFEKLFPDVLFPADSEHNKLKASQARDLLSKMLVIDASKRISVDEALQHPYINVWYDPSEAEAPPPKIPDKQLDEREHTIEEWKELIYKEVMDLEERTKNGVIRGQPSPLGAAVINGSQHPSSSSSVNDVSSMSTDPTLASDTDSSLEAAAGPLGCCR

BRaf [4] = target: T2, BRaf; assay: 33PanQinase enzyme assay, BRaf; type: biochemical; details: ratio IC50(BRaf)/IC50(MKK4)
Method in brief: as §2

MKK7 [5] = target: T3, MKK7 (Homo sapiens, UniProt O14733); assay: 33PanQinase enzyme assay, MKK7; type: biochemical; design: purchased ProQinase GmbH, Freiburg, Germany (33PanQinase Assay Service); details: ratio IC50(MKK7)/IC50(MKK4)
T3 sequence (O14733 1-419): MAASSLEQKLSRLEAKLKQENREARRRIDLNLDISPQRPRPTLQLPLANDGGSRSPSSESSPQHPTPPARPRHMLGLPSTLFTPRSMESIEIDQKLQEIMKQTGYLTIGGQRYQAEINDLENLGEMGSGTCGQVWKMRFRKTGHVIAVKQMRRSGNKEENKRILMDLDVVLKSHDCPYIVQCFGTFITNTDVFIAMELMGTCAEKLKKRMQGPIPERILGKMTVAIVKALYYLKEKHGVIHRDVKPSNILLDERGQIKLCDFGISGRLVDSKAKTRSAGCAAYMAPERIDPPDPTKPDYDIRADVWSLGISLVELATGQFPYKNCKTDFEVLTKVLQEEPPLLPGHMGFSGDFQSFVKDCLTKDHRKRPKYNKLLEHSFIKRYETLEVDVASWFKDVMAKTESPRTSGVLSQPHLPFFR
Method in brief: as §2

MKK4 [6] = target: T4, MKK4 (Homo sapiens, UniProt P45985); assay: 33PanQinase enzyme assay, MKK4; type: biochemical; details: assay 'IC50'; read-out: Potency MKK4 (IC50)
T4 construct: purchased ProQinase GmbH, Freiburg, Germany (33PanQinase Assay Service)
T4 sequence (P45985 1-399): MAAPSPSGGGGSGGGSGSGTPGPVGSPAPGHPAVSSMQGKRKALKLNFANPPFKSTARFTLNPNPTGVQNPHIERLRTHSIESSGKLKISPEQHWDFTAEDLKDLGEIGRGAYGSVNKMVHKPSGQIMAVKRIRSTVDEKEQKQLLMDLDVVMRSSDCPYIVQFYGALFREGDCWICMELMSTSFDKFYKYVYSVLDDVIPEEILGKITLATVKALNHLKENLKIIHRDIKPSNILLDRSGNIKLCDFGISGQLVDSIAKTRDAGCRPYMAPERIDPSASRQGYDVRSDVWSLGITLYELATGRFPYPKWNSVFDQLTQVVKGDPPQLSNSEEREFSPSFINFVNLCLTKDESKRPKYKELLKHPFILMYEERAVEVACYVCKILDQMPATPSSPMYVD
Method in brief: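 Inhibition measured as 33Pi transfer to substrate after a 60-min, 30 °C reaction, acid-stopped and scintillation-counted.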

MKK7 [7] = target: T3, MKK7; assay: KINOMEscan competition binding assay, MKK7; design: M1/R419; host or cells: HEK-293; details: ratio PoC (off-target)/PoC (MKK4)
Method in brief: as §1

MKK4 [8] = target: T5, MKK4 (Homo sapiens, UniProt P45985); assay: KINOMEscan competition binding assay, MKK4; details: residual percent of control binding (PoC) at 100 nM
T5 construct: S84/D399; host or cells: HEK-293
T5 sequence (P45985 84-399): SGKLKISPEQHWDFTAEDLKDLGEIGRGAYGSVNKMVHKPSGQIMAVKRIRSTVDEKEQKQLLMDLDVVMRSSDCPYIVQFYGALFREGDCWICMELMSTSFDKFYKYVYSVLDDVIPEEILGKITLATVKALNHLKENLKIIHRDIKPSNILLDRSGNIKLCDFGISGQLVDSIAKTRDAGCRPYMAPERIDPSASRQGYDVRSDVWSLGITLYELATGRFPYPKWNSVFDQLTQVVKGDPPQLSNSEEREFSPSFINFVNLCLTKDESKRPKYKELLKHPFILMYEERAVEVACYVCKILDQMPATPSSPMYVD
Method in brief: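 Tested at 100 nM and reported as percent of control binding (PoC). MKK4 was produced in HEK-293 cells and DNA-tagged. Displacement from ligand-coated, blocked beads was read by qPCR of eluted kinase.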

Compound | selectivity based on % Ctrl @100 nM vs. JNK1 (JNK1 [1]) | selectivity based on % Ctrl @100 nM vs. Braf (BRaf [2]) | Selectivity JNK1, IC50(off-target)/IC50(MKK4) (JNK1 [3]) | Selectivity Braf, IC50(off-target)/IC50(MKK4) (BRaf [4]) | Selectivity IVIKK7, IC50(off-target)/IC50(MKK4) (MKK7 [5]) | IC50 (MKK4 [6]) [nM] | selectivity based on % Ctrl @100 nM vs. MKK7 (MKK7 [7]) | MKK4 [% Ctrl @ 100 nM (MKK4 [8])
CCCS(=O)(=O)Nc1c(F)ccc(C(=O)c2c[nH]c3ncc(-c4ccc(C5CC5)nc4)cc23)c1F [Example 159, N-(3-(5-(6-cyclopropylpyridin-3-yl)-1H-pyrrolo[2,3-b]pyridine-3-carbonyl)-2,6-difluorophenyl)propane-1-sulfonamide] | +++ (Ratio > 100) | +++ (Ratio > 100) | +++ (IC50(off-target)/IC50(MKK4) > 100) | ++ (100 ≥ IC50(off-target)/IC50(MKK4) > 10) | +++ (IC50(off-target)/IC50(MKK4) > 100) | < 100 | +++ (Ratio > 100) | +++ (PoC < 1)
CCCS(=O)(=O)Nc1c(F)ccc(C(=O)c2c[nH]c3ncc(-c4ccc(NC)nc4)cc23)c1F [Example 160, N-(2,6-difluoro-3-(5-(6-(methylamino)pyridin-3-yl)-1H-pyrrolo[2,3-b]pyridine-3-carbonyl)phenyl)propane-1-sulfonamide] | +++ (Ratio > 100) | +++ (Ratio > 100) | ++ (100 ≥ IC50(off-target)/IC50(MKK4) > 10) | ++ (100 ≥ IC50(off-target)/IC50(MKK4) > 10) | +++ (IC50(off-target)/IC50(MKK4) > 100) | < 100 | +++ (Ratio > 100) | +++ (PoC < 1)
CCCS(=O)(=O)Nc1c(F)ccc(C(=O)c2c[nH]c3ncc(-c4ccc(N(C)C)nc4)cc23)c1F [Example 161, N-(3-(5-(6-(dimethylamino)pyridin-3-yl)-1H-pyrrolo[2,3-b]pyridine-3-carbonyl)-2,6-difluorophenyl)propane-1-sulfonamide] | +++ (Ratio > 100) | +++ (Ratio > 100) | ++ (100 ≥ IC50(off-target)/IC50(MKK4) > 10) | ++ (100 ≥ IC50(off-target)/IC50(MKK4) > 10) | +++ (IC50(off-target)/IC50(MKK4) > 100) | < 100 | +++ (Ratio > 100) | +++ (PoC < 1)
CCCS(=O)(=O)Nc1c(F)ccc(C(=O)c2c[nH]c3ncc(-c4ccc(N5CCC5)nc4)cc23)c1F [Example 162, N-(3-(5-(6-(azetidin-1-yl)pyridin-3-yl)-1H-pyrrolo[2,3-b]pyridine-3-carbonyl)-2,6-difluorophenyl)propane-1-sulfonamide] | +++ (Ratio > 100) | +++ (Ratio > 100) | ++ (100 ≥ IC50(off-target)/IC50(MKK4) > 10) | ++ (100 ≥ IC50(off-target)/IC50(MKK4) > 10) | +++ (IC50(off-target)/IC50(MKK4) > 100) | 100 to 1000 | +++ (Ratio > 100) | +++ (PoC < 1)
C=Cc1ccc(-c2cnc3[nH]cc(C(=O)c4ccc(F)c(NS(=O)(=O)CCC)c4F)c3c2)cn1 [Example 163, N-(2,6-difluoro-3-(5-(6-vinylpyridin-3-yl)-1H-pyrrolo[2,3-b]pyridine-3-carbonyl)phenyl)propane-1-sulfonamide] | +++ (Ratio > 100) | +++ (Ratio > 100) | ++ (100 ≥ IC50(off-target)/IC50(MKK4) > 10) | ++ (100 ≥ IC50(off-target)/IC50(MKK4) > 10) | +++ (IC50(off-target)/IC50(MKK4) > 100) | < 100 | +++ (Ratio > 100) | +++ (PoC < 1)
O=C(c1ccc(F)c(NS(=O)(=O)CCC(F)(F)F)c1F)c1c[nH]c2ncc(-c3cnc(N4CCCC4)nc3)cc12 [Example 179, N-(2,6-difluoro-3-(5-(2-(pyrrolidin-1-yl)pyrimidin-5-yl)-1H-pyrrolo[2,3-b]pyridine-3-carbonyl)phenyl)-3,3,3-trifluoropropane-1-sulfonamide] | +++ (Ratio > 100) | +++ (Ratio > 100) | +++ (IC50(off-target)/IC50(MKK4) > 100) | +++ (IC50(off-target)/IC50(MKK4) > 100) | +++ (IC50(off-target)/IC50(MKK4) > 100) | < 100 | +++ (Ratio > 100) | +++ (PoC < 1)
O=C(c1ccc(F)c(NS(=O)(=O)CCC(F)(F)F)c1F)c1c[nH]c2ncc(-c3cnc(N4CCC4)nc3)cc12 [Example 180, N-(3(5-(2-(azetidin-1-yl)pyrimidin-5-yl)-1H-pyrrolo[2,3-b]pyridine-3-carbonyl)-2,6-difluorophenyl)-3,3,3-trifluoropropane-1-sulfonamide] | +++ (Ratio > 100) | +++ (Ratio > 100) | +++ (IC50(off-target)/IC50(MKK4) > 100) | +++ (IC50(off-target)/IC50(MKK4) > 100) | +++ (IC50(off-target)/IC50(MKK4) > 100) | < 100 | +++ (Ratio > 100) | +++ (PoC < 1)
O=C(c1ccc(F)c(NS(=O)(=O)CCC(F)(F)F)c1F)c1c[nH]c2ncc(-c3cnc(N4CCCCC4)nc3)cc12 [Example 181, N-(2,6-difluoro-3-(5-(2-(piperidin-1-yl)pyrimidin-5-yl)-1H-pyrrolo[2,3-b]pyridine-3-carbonyl)phenyl)-3,3,3-trifluoropropane-1-sulfonamide] | +++ (Ratio > 100) | +++ (Ratio > 100) | ++ (100 ≥ IC50(off-target)/IC50(MKK4) > 10) | +++ (IC50(off-target)/IC50(MKK4) > 100) | +++ (IC50(off-target)/IC50(MKK4) > 100) | 100 to 1000 | +++ (Ratio > 100) | +++ (PoC < 1)
O=C(c1ccc(F)c(NS(=O)(=O)CCC(F)(F)F)c1F)c1c[nH]c2ncc(-c3cnc(NC4CC4)nc3)cc12 [Example 182] | +++ (Ratio > 100) | +++ (Ratio > 100) | +++ (IC50(off-target)/IC50(MKK4) > 100) | +++ (IC50(off-target)/IC50(MKK4) > 100) | +++ (IC50(off-target)/IC50(MKK4) > 100) | < 100 | +++ (Ratio > 100) | +++ (PoC < 1)
